# Assay results: patent US20120277197A1, “TIGECYCLINE FORMULATIONS” (WYETH, priority 2008, published 2012)
# Assay: Effect of pH on stability of tigecycline 0.50 mg/ml in Normal Saline, in a flask at 25° C.
# Type: physicochemical
# Description: The effect of pH on the stability of tigecycline formulations having a concentration of 0.50 mg tigecycline/ml in a Normal Saline solution was studied by analyzing the variation of tigecycline content, total impurity content, and the concentration of tigecycline epimer at different pH values, either in the presence of air or under an atmosphere having an oxygen content of less than 1 ppm, in a flask at 25° C.
# [1] = pH 3, 0 h, in the presence of air
# [2] = pH 3, 8 h, in the presence of air
# [3] = pH 3, 24 h, in the presence of air
# [4] = pH 3, 72 h, in the presence of air
# [5] = pH 3.5, 0 h, in the presence of air
# [6] = pH 3.5, 8 h, in the presence of air
# [7] = pH 3.5, 24 h, in the presence of air
# [8] = pH 3.5, 72 h, in the presence of air
# [9] = pH 4.0, 0 h, in the presence of air
# [10] = pH 4.0, 24 h, in the presence of air
# [11] = pH 4.0, 72 h, in the presence of air
# [12] = pH 4.5, 0 h, in the presence of air
# [13] = pH 4.5, 8 h, in the presence of air
# [14] = pH 4.5, 24 h, in the presence of air
compound,measurement,setting,value
"CN(C)c1cc(NC(=O)CNC(C)(C)C)c(O)c2c1C[C@H]1C[C@H]3[C@H](N(C)C)C(O)=C(C(N)=O)C(=O)[C@@]3(O)C(O)=C1C2=O [tigecycline, Tigecycline]","pH at which the solution is most stable, based on total impurity content and tigecycline content",in the presence of air,4.5-5.0
same,pH at which the solution is most stable,oxygen <1 ppm,4.5-6.0
same,Total impurity content as a % of initial weight of tigecycline,[1],0.36%
same,Total tigecycline epimer content as a % of initial weight of tigecycline,[1],0.19%
same,Percentage of tigecycline remaining,"pH 3.0, 0 h, in the presence of air",100%
same,Total impurity content as a % of initial weight of tigecycline,"pH 3, 0 h, oxygen <1 ppm",0.258%
same,Total tigecycline epimer content as a % of initial weight of tigecycline,"pH 3, 0 h, oxygen <1 ppm",0.152%
same,Percentage of tigecycline remaining,"pH 3.0, 0 h, oxygen <1 ppm",100.0%
same,Total impurity content as a % of initial weight of tigecycline,[2],0.907%
same,Total tigecycline epimer content as a % of initial weight of tigecycline,[2],0.83%
same,Percentage of tigecycline remaining,"pH 3.0, 8 h, in the presence of air",100%
same,Total impurity content as a % of initial weight of tigecycline,"pH 3, 8 h, oxygen <1 ppm",0.628%
same,Total tigecycline epimer content as a % of initial weight of tigecycline,"pH 3, 8 h, oxygen <1 ppm",0.485%
same,Percentage of tigecycline remaining,"pH 3.0, 8 h, oxygen <1 ppm",99.55%
same,Total impurity content as a % of initial weight of tigecycline,[3],2.564%
same,Total tigecycline epimer content as a % of initial weight of tigecycline,[3],2.27%
same,Percentage of tigecycline remaining,"pH 3.0, 24 h, in the presence of air",98%
same,Total impurity content as a % of initial weight of tigecycline,"pH 3, 24 h, oxygen <1 ppm",2.391%
same,Total tigecycline epimer content as a % of initial weight of tigecycline,"pH 3, 24 h, oxygen <1 ppm",2.267%
same,Percentage of tigecycline remaining,"pH 3.0, 24 h, oxygen <1 ppm",98.08%
same,Total impurity content as a % of initial weight of tigecycline,[4],8.3%
same,Total tigecycline epimer content as a % of initial weight of tigecycline,[4],7.58%
same,Percentage of tigecycline remaining,"pH 3.0, 72 h, in the presence of air",93%
same,Total impurity content as a % of initial weight of tigecycline,"pH 3, 72 h, oxygen <1 ppm",7.853%
same,Total tigecycline epimer content as a % of initial weight of tigecycline,"pH 3, 72 h, oxygen <1 ppm",7.651%
same,Percentage of tigecycline remaining,"pH 3.0, 72 h, oxygen <1 ppm",92.24%
same,Percentage of tigecycline remaining,[5],100%
same,Total impurity content as a % of initial weight of tigecycline,[5],0.35%
same,Total tigecycline epimer content as a % of initial weight of tigecycline,[5],0.18%
same,Percentage of tigecycline remaining,"pH 3.5, 0 h, oxygen <1 ppm",100.0%
same,Total impurity content as a % of initial weight of tigecycline,"pH 3.5, 0 h, oxygen <1 ppm",0.245%
same,Total tigecycline epimer content as a % of initial weight of tigecycline,"pH 3.5, 0 h, oxygen <1 ppm",0.133%
same,Percentage of tigecycline remaining,[6],100%
same,Total impurity content as a % of initial weight of tigecycline,[6],0.737%
same,Total tigecycline epimer content as a % of initial weight of tigecycline,[6],0.47%
same,Percentage of tigecycline remaining,"pH 3.5, 8 h, oxygen <1 ppm",100.19%
same,Total impurity content as a % of initial weight of tigecycline,"pH 3.5, 8 h, oxygen <1 ppm",0.559%
same,Total tigecycline epimer content as a % of initial weight of tigecycline,"pH 3.5, 8 h, oxygen <1 ppm",0.383%
same,Percentage of tigecycline remaining,[7],100%
same,Total impurity content as a % of initial weight of tigecycline,[7],1.727%
same,Total tigecycline epimer content as a % of initial weight of tigecycline,[7],1.45%
same,Percentage of tigecycline remaining,"pH 3.5, 24 h, oxygen <1 ppm",99.26%
same,Total impurity content as a % of initial weight of tigecycline,"pH 3.5, 24 h, oxygen <1 ppm",1.478%
same,Total tigecycline epimer content as a % of initial weight of tigecycline,"pH 3.5, 24 h, oxygen <1 ppm",1.351%
same,Percentage of tigecycline remaining,[8],95%
same,Total impurity content as a % of initial weight of tigecycline,[8],5.521%
same,Total tigecycline epimer content as a % of initial weight of tigecycline,[8],4.83%
same,Percentage of tigecycline remaining,"pH 3.5, 72 h, oxygen <1 ppm",96.03%
same,Total impurity content as a % of initial weight of tigecycline,"pH 3.5, 72 h, oxygen <1 ppm",4.913%
same,Total tigecycline epimer content as a % of initial weight of tigecycline,"pH 3.5, 72 h, oxygen <1 ppm",4.671%
same,Percentage of tigecycline remaining,[9],100%
same,Total impurity content as a % of initial weight of tigecycline,[9],0.32%
same,Total tigecycline epimer content as a % of initial weight of tigecycline,[9],0.189%
same,Percentage of tigecycline remaining,[10],100%
same,Total impurity content as a % of initial weight of tigecycline,[10],1.06%
same,Total tigecycline epimer content as a % of initial weight of tigecycline,[10],0.90%
same,Percentage of tigecycline remaining,[11],98%
same,Total impurity content as a % of initial weight of tigecycline,[11],3.129%
same,Total tigecycline epimer content as a % of initial weight of tigecycline,[11],2.90%
same,Percentage of tigecycline remaining,[12],100%
same,Total impurity content as a % of initial weight of tigecycline,[12],0.30%
same,Total tigecycline epimer content as a % of initial weight of tigecycline,[12],0.16%
same,Percentage of tigecycline remaining,"pH 4.5, 0 h, oxygen <1 ppm",100.0%
same,Total impurity content as a % of initial weight of tigecycline,"pH 4.5, 0 h, oxygen <1 ppm",0.232%
same,Total tigecycline epimer content as a % of initial weight of tigecycline,"pH 4.5, 0 h, oxygen <1 ppm",0.116%
same,Percentage of tigecycline remaining,[13],100%
same,Total impurity content as a % of initial weight of tigecycline,[13],0.483%
same,Total tigecycline epimer content as a % of initial weight of tigecycline,[13],0.30%
same,Percentage of tigecycline remaining,"pH 4.5, 8 h, oxygen <1 ppm",99.69%
same,Total impurity content as a % of initial weight of tigecycline,"pH 4.5, 8 h, oxygen <1 ppm",0.368%
same,Total tigecycline epimer content as a % of initial weight of tigecycline,"pH 4.5, 8 h, oxygen <1 ppm",0.233%
same,Percentage of tigecycline remaining,[14],99%
same,Total impurity content as a % of initial weight of tigecycline,[14],0.75%
same,Total tigecycline epimer content as a % of initial weight of tigecycline,[14],0.65%
same,Percentage of tigecycline remaining,"pH 4.5, 24 h, oxygen <1 ppm",99.72%
